Laboratory results as given in patent publication US11655244B2, “Carbazole compounds and methods of use thereof” (GSNO Therapeutics, Inc, priority 2017, dated 2023).

Legend:
db/db mice = experiment: Insulin and glucose tolerance tests, survival and 8-isoprostane in db/db diabetic mice; assay type: in vivo
Procedure: Compound 17 was studied in 6 week intra-gastric insulin and glucose tolerance tests in db/db mice dosed orally with Compound 17 at 10 mg/kg for 6 weeks qd. The male db/db mice were started on study at 6 weeks of age and were given a 60% high fat diet to increase the diabetic phenotype.
(§1) Vascular reactivity: Db/db mouse aorta segments were equilibrated in oxygenated PBS (95% O2 and 5% CO2) at 37° C. Following equilibration, 1 μM phenylephrine was added to each ring for submaximal contraction. After stabilization, Compound 17 was added to the rings and the effect on the muscle tone of the aorta segments was monitored with a tensometer as dose-responses from 10^-8 M to 10^-5 M for acetylcholine (“Ach”) and A23187 (5-(methylamino)-2-({(2R,3R,6S,8S,9R,11R)-3,9,11-trimethyl-8-[(1S)-1-methyl-2-oxo-2-(1H-pyrrol-2-yl)ethyl]-1,7-dioxaspiro[5.5]undec-2-yl}methyl)-1,3-benzoxazole-4-carboxylic). 8-Isoprostane was measured in plasma and heart homogenates by standard Elisa methods.

[1] = system: Db/db mouse aorta segments; experiment: Vascular reactivity of aorta segments (tensometer); conditions: db/db mice; vs vehicle
Procedure: as §1

[2] = system: collagen induced arthritis model in DBAJ1 mice; experiment: Collagen induced arthritis model; assay type: in vivo; conditions: 15 mg/kg daily from day 8
Procedure: Compound 17 was tested in a collagen induced arthritis model in DBAJ1 mice. Compound 17 was started on day 8 when the arthritis was established, as in a therapeutic model, and the DBAJ1 mice were then treated daily with Compound 17 (15 mg/kg). Mice were challenged with bovine collagen II+complete adjuvant at day 0. Clinical scores were determined as follows: 0=normal; 0.5=erythema and edema in only one digit; 1=erythema and mild edema of the footpad, or ankle or two to five digits; 2=erythema and moderate edema of two joints (footpad, ankle, two to five digits); 3=erythema and severe edema of the entire paw; 4=reduced swelling and deformation leading to an incapacitated limb.
Measurement of anti-collagen antibodies in the collagen induced arthritis model of rheumatoid arthritis in DBAJ1 Mice was by an anti-collagen ELISA kit by standard methods.

NC(=O)CCn1c2ccc(-n3ccnc3)cc2c2ccc(CCC(=O)O)cc21 [Compound 17, 3-(imidazol-1(H)-yl)-7-(2-carboxylethyl)-9(H)-(2-aminocarbonylethyl) carbazole]
insulin and glucose tolerances (db/db mice; 10 mg/kg orally qd for 6 weeks, 60% high fat diet): statistically significantly reduced insulin and glucose tolerances | amount of F2-IsoPs in cardiac tissue (myocardial 8-isoprostane) (db/db mice; db/db mice, vs vehicle): significantly reduces | increase of survival in severely debilitated diabetic mice (db/db mice; db/db mice, vs vehicle): 66% | vascular reactivity [1]: increased their vascular reactivity | arthritis (clinical score) [2]: inhibits arthritis | production of anti-collagen antibodies ([2]; ELISA): inhibits production of anti-collagen antibodies
